Laboratory results from publication PMC10244669, “Virtual screening–based discovery of AI-2 quorum sensing inhibitors that interact with an allosteric hydrophobic site of LsrK and their functional evaluation” (Frontiers in Chemistry, 2023).
“Also recorded” adds a separate entry of the source. Where two headings read alike, the source gives them in different places.

Experiments:
[1] = system: AI-2-mediated QS (lsr promoter luminescence, reporter strain WHQ02); experiment: Cell-based AI-2-mediated QS interference assay; design: species or system E. coli; settings: for AI-2 QS inhibitory activity (in words) / maximum AI-2 QS inhibition: 100 to 3.13 μM; for IC50: Escherichia coli, cell-based QS interference assay, WHQ02, mean ± SD, n = 3
Source text: All chemicals were purchased from Sigma-Aldrich (St. Louis, MO, United States) unless otherwise stated. DPD was purchased from the […] ZZBIO Co., LTD. (Shanghai, China). The Kinase-Glo Max Luminescent Kinase Assay Kit was purchased from Promega (Madison, WI, United States). NTA sensor chips were purchased from GE Healthcare (Chicago, IL, United States). All compounds used as potential inhibitors of LsrK were purchased from Topscience Biotechnology Co. Ltd. (Shanghai, China). The QS reporter strain WHQ02 (E. coli BL21 ΔTolC pWHQ01) was donated by Huiqi Wen (Institute of Microbiology and Epidemiology, Academy of Military Sciences, Beijing, China). The plasmid pWHQ01 was constructed by cloning the lsr promoter and the luxCDABE luminescent gene. BamHI and XhoI were purchased from New England Biolabs (Ipswich, MA, United States). pET-28a was purchased from Novagen (Madison, WI, United States). Escherichia coli BL21 (DE3) cells were purchased from TransGen Biotech Co., LTD. (Beijing, China). A Ni-NTA column was purchased from Sangon Biotech (Shanghai, China). Sodium dodecyl sulfate-polyacrylamide gel electrophoresis (SDS-PAGE) and the Bradford Protein Assay Kit were purchased from Thermo Fisher Scientific (Waltham, MA, United States).
(§1) WHQ02 cultured overnight were diluted 1:100 in fresh LB supplemented with 100 μg/mL ampicillin and grown at 30°C and until the logarithmic phase (OD600 = 0.4–0.6). The bacterial culture was centrifuged at 4,000 × g for 5 min, and the pellet was resuspended in fresh LB medium to prepare a suspension of 2 McFarland standard and added to the 96-well plate. In the experimental group, 74 compounds (final concentrations ranging from 100 to 3.125 μM) were added to reach a total volume of 100 µL. In addition, 100 µL LB medium with an equal volume of DMSO (negative control) or 100 µL LB supplemented with 2% glucose and the same volume of DMSO (positive control) were added. Bacteria was cultured at 37°C with shaking for 3 h. The […] of WHQ02 is directly regulated by the lsr promoter, reflecting the strength of QS. The luminescence and OD600 were measured using an Enspire 2300 microplate reader (Perkin Elmer). To further study the effect of compounds on bacterial growth, overnight cultured WHQ02 was diluted 1:1,000 with LB medium and added to 96 well plate. Then, the compounds were added to a 96-well plate (final concentration: 100 µM) and diluted in a gradient. The same volume of DMSO was added to the control group. The plates were incubated at 37°C for 18 h. OD600 values were recorded using an Enspire 2300 microplate reader. The experiment was performed in triplicate.

LsrK [2] = target: T1, LsrK (Salmonella typhimurium, UniProt Q8ZKQ6); experiment: LsrK inhibition assay (Kinase-Glo luminescence); assay type: biochemical; settings: for IC50 / inhibition at 200 µM: mean ± SD, n = 3; for inhibition at 200 µM: Table 1, hits at 200 μM with 100 μM ATP; for type of LsrK inhibition: from IC50 values at 50, 100 and 150 μM ATP
Protocol: (§2) To express LsrK with a 6 × His-tag at the C-terminus, the LsrK encoding gene of Salmonella typhimurium was amplified using primers carrying restriction endonuclease sites BamHI and XhoI. The amplified product was cloned into the expression vector pET-28a with a C-terminal 6 × His-tag and transfected into E. coli BL21 (DE3).
This assay was performed as previously described ([Gatta et al., 2019]), and the conditions were optimized. […] 74 purchased compounds were dissolved in dimethyl sulfoxide (20% v/v DMSO in reaction buffer) at a concentration of 2 mM. Briefly, 10 μL DPD, 10 μL LsrK, and 5 μL compound were added to a 96-well plate, and 25 μL ATP or 25 μL reaction buffer was added after 30 min incubation. The plate was incubated for 10 min at 37°C, then 50 μL of kit reagent was added, and the plate was incubated at 37°C for 15 min. The luminescence signal was measured using an Enspire 2300 microplate reader (PerkinElmer). Dose-response tests were carried out to verify the activity of hits chosen by primary screening. (200 μM–6.25 µM) ([Medarametla et al., 2018]). The inhibition percentage of each tested compound was determined as previously described and IC50 was calculated using four logistic parameters.

[3] = system: WHQ02 (E. coli BL21 ΔTolC pWHQ01); experiment: Growth inhibition of the reporter strain (OD600); assay type: cell-based; settings: 100 to 3.13 μM
Protocol: as §1
The 12 hits showing >60% LsrK inhibition were tested for QS inhibition using cell-based AI-2-mediated QS interference assay, as previously described [Baba et al., 2006]). To ensure that lower luminescence was the result of QS inhibition not the chemical toxicity or antibacterial activity, strain growth inhibition was assessed concurrently. […] Therefore, a parallel experiment to test the MIC of compounds at a low bacterial density was conducted, indirectly reflecting the potential growth inhibition to avoid false positives.

LsrK [4] = target: T1, LsrK; experiment: SPR assay; assay type: binding; settings: for Kd: His-tagged LsrK on NTA chip, 50 to 1.56 µM, affinity binding model; for LsrK specific binding (in words): SPR
Source text: as §2
His-tagged LsrK was immobilized in the NTA sensor chip (GE Healthcare) in Biacore 8 K using a running buffer consisting of 1 × PBS-T and 5% v/v DMSO. Serially diluted small molecules (concentration range: 50 to 1.56 µM) were injected. Intermediate concentration (12.5 µM) was set as a repeat, and 1 × PBS-T with 5% v/v DMSO was set as the control. The association time was set to 120 s; the dissociation time was set to 130 s; and the flow rate was set to 30 μL/min. The resulting data were fitted to the affinity binding model using Biacore Evaluation Software (GE Healthcare).

T1 sequence (Q8ZKQ6 whole entry): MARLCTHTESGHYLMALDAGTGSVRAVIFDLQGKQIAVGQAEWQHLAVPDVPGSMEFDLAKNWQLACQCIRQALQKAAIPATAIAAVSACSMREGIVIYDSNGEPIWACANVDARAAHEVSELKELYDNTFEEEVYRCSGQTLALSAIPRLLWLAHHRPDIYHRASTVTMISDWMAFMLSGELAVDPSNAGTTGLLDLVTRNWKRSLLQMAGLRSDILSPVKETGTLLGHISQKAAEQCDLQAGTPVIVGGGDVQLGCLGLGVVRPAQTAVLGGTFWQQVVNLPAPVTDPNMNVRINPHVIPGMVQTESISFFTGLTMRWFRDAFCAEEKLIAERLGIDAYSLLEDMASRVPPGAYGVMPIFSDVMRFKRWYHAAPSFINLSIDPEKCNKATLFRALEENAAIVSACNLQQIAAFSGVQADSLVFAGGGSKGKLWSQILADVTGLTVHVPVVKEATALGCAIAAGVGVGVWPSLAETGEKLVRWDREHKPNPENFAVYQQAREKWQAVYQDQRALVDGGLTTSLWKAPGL

Q: `COC(=O)CSC1=NC(=O)C[C@H](c2ccc(Cl)cc2)[C@H]1C#N` [2188–1861] was tested. Which “AI-2 QS inhibitory activity (in words)” value [1] did it give?
A: The value was “significant QS inhibitory activities”.

Q: What about the IC50 [1] of the same compound?
A: The IC50 was 38.4 ± 3.35 µM.

Q: And the IC50 (LsrK [2]; 100 μM ATP, read-out: IC50B)?
A: Its IC50 is 129 ± 6.85 µM.

Q: What about the inhibition at 200 µM (LsrK [2]) of the same compound?
A: Its inhibition at 200 µM is 92.1 ± 6.68%.

Q: Which IC50 [1] does the source give for `CCOc1ccc(/C=N\NC(=S)Nc2cccc(C(=O)O)c2)cc1O` [3284–0335] here?
A: The IC50 was > 100 µM.

Q: What about the IC50 (LsrK [2]; 100 μM ATP, read-out: IC50B) of the same compound?
A: Its IC50 is 84.9 ± 7.73 µM.

Q: What about the inhibition at 200 µM (LsrK [2]) of the same compound?
A: The inhibition at 200 µM was 67.6 ± 4.88%.

Q: With `C/C(=N/NC(=S)Nc1cccc(C(=O)O)c1)c1ccc(C)cc1` [3284–1358] as the compound, how does the “AI-2 QS inhibitory activity (in words)” value [1] read?
A: Its value is “significant QS inhibitory activities”.

Q: And the “maximum AI-2 QS inhibition” value [1]?
A: The value was > 80%.

Q: What about the IC50 [1] of the same compound?
A: The IC50 was 37.8 ± 3.18 µM.

Q: What about the maximum growth inhibition [3] of the same compound?
A: Its maximum growth inhibition is < 40%.

Q: And the IC50 (LsrK [2]; 50 μM ATP, read-out: IC50A)?
A: Its IC50 is 29.9 ± 1.95 µM.

Q: And the IC50 (LsrK [2]; 100 μM ATP, read-out: IC50B)?
A: Its IC50 is 41.8 ± 2.57 µM.

Q: And the IC50 (LsrK [2]; 150 μM ATP, read-out: IC50C)?
A: Its IC50 is 88.1 ± 3.89 µM.

Q: And the inhibition at 200 µM (LsrK [2])?
A: Its inhibition at 200 µM is 101 ± 3.82%.

Q: What about the “type of LsrK inhibition” value (LsrK [2]) of the same compound?
A: Its value is “ATP-competitive inhibitors”.

Q: What does the source list for `O=C1NC(=S)S/C1=C\c1c[nH]c2ccc(OCc3ccccc3)cc12` [3681–1274]?
A: AI-2 QS inhibitory activity (in words) [1]: significant QS inhibitory activities; IC50 [1]: 42.2 ± 2.15 µM; IC50 (LsrK [2]; 100 μM ATP, read-out: IC50B): 133 ± 8.85 µM; inhibition at 200 µM (LsrK [2]): 66.2 ± 3.54%

Q: With `O=C(O)C[C@H]1S/C(=N\N=C2\C(=O)Nc3ccccc32)N(c2ccc(O)cc2)C1=O` [4515–0182] as the compound, how does the IC50 [1] read?
A: The IC50 was > 100 µM.

Q: What about the IC50 (LsrK [2]; 100 μM ATP, read-out: IC50B) of the same compound?
A: The IC50 was 52.1 ± 2.68 µM.

Q: What about the inhibition at 200 µM (LsrK [2]) of the same compound?
A: The inhibition at 200 µM was 83.7 ± 9.63%.

Q: What does the source list for `Cc1[nH]c(C(=O)N/N=C\c2ccc(O)c(O)c2)c(C)c1C(=O)N/N=C\c1ccc(O)c(O)c1` [5617–0915]?
A: IC50 [1]: > 100 µM; IC50 (LsrK [2]; 100 μM ATP, read-out: IC50B): 79.4 ± 4.55 µM; inhibition at 200 µM (LsrK [2]): 71.5 ± 4.33%

Q: With `O=C(O)CCc1ccc(-c2ccccc2)n1CC(=O)Nc1ccccc1C(F)(F)F` [D135-0149] as the compound, how does the “AI-2 QS inhibitory activity (in words)” value [1] read?
A: The value was “significant QS inhibitory activities”.

Q: And the “maximum AI-2 QS inhibition” value [1]?
A: The value was > 80%.

Q: And the IC50 [1]?
A: Its IC50 is 22.1 ± 1.66 µM.

Q: What about the maximum growth inhibition [3] of the same compound?
A: Its maximum growth inhibition is < 40%.

Q: What about the IC50 (LsrK [2]; 50 μM ATP, read-out: IC50A) of the same compound?
A: The IC50 was 21.8 ± 1.48 µM.

Q: What about the IC50 (LsrK [2]; 100 μM ATP, read-out: IC50B) of the same compound?
A: Its IC50 is 33.5 ± 2.52 µM.

Q: And the IC50 (LsrK [2]; 150 μM ATP, read-out: IC50C)?
A: The IC50 was 80.1 ± 4.83 µM.

Q: And the inhibition at 200 µM (LsrK [2])?
A: The inhibition at 200 µM was 83.9 ± 6.33%.

Q: What about the “type of LsrK inhibition” value (LsrK [2]) of the same compound?
A: Its value is “ATP-competitive inhibitors”.

Q: Which results are given for `Cc1c(O)cc(O)c2c(=O)c(O)c(-c3ccc(O)c(O)c3)oc12` [N025-0038]?
A: AI-2 QS inhibitory activity (in words) [1]: significant QS inhibitory activities; also recorded: exhibited AI-2 QS inhibition at sub-minimum inhibitory concentrations; also recorded: exhibited QS inhibition at sub-MIC concentrations; IC50 [1]: 12.5 ± 0.99 µM; Kd (LsrK [4]): 30.3 µM; LsrK specific binding (in words) (LsrK [4]): specifically bound to LsrK; also recorded: exhibited LsrK specific binding; IC50 (LsrK [2]; 50 μM ATP, read-out: IC50A): 26.6 ± 1.22 µM; IC50 (LsrK [2]; 100 μM ATP, read-out: IC50B): 43.7 ± 4.31 µM; IC50 (LsrK [2]; 150 μM ATP, read-out: IC50C): 68 ± 1.27 µM; inhibition at 200 µM (LsrK [2]): 80.5 ± 2.31%; type of LsrK inhibition (LsrK [2]): ATP-competitive inhibitors

Q: What does the source list for `Cc1c(CC(=O)O)c(=O)oc2cc(OCc3ccc(C(=O)O)o3)ccc12` [Y040-9027]?
A: IC50 [1]: > 100 µM; IC50 (LsrK [2]; 100 μM ATP, read-out: IC50B): 90 ± 5.18 µM; inhibition at 200 µM (LsrK [2]): 94.1 ± 6.72%

Q: For `O=C(O)[C@@H]1[C@@H](C(=O)Nc2cc(C(F)(F)F)ccc2Cl)[C@H]2C=C[C@@H]1O2` [Y204-6349], which IC50 [1] is on record?
A: The IC50 was > 100 µM.

Q: What about the IC50 (LsrK [2]; 100 μM ATP, read-out: IC50B) of the same compound?
A: The IC50 was 75.1 ± 1.19 µM.

Q: And the inhibition at 200 µM (LsrK [2])?
A: Its inhibition at 200 µM is 87.4 ± 2.6%.

Q: `NC(=O)c1cc(Cc2ccccc2)sc1NC(=O)C1C2CCC(C2)C1C(=O)O` (stereo not shown) [Y205-6768] was tested. Which “AI-2 QS inhibitory activity (in words)” value [1] did it give?
A: The value was “significant QS inhibitory activities”.

Q: And the “maximum AI-2 QS inhibition” value [1]?
A: The value was > 80%.

Q: What about the IC50 [1] of the same compound?
A: Its IC50 is 11.3 ± 0.7 µM.

Q: What about the Kd (LsrK [4]) of the same compound?
A: The Kd was 8.49 µM.

Q: And the “LsrK specific binding (in words)” value (LsrK [4])?
A: Its value is “specifically bound to LsrK; also recorded: exhibited LsrK specific binding”.

Q: And the maximum growth inhibition [3]?
A: The maximum growth inhibition was < 40%.

Q: What about the IC50 (LsrK [2]; 50 μM ATP, read-out: IC50A) of the same compound?
A: The IC50 was 8.73 ± 0.5 µM.

Q: What about the IC50 (LsrK [2]; 100 μM ATP, read-out: IC50B) of the same compound?
A: Its IC50 is 16.8 ± 0.76 µM.

Q: What about the IC50 (LsrK [2]; 150 μM ATP, read-out: IC50C) of the same compound?
A: Its IC50 is 26 ± 1.32 µM.

Q: And the inhibition at 200 µM (LsrK [2])?
A: The inhibition at 200 µM was 101 ± 8.39%.

Q: And the “type of LsrK inhibition” value (LsrK [2])?
A: Its value is “ATP-competitive inhibitors”.
